Experimental data: ChEMBL document CHEMBL4190197, “Nepetaefolins A-J, Cytotoxic Chinane and Abietane Diterpenoids from Caryopteris nepetaefolia” (J Nat Prod, 2017)

Legend:
Assay type in all cases: functional
Conditions in all cases: Homo sapiens, 144 h
[1] = Antiproliferative activity against non-small cell lung cancer patient-derived LUPF045 cells after 6 days by ATP-TCA method
[2] = Antiproliferative activity against non-small cell lung cancer patient-derived LUPF003 cells after 6 days by ATP-TCA method
[3] = Antiproliferative activity against ovarian cancer patient-derived OVPF008 cells after 6 days by ATP-TCA method
[4] = Antiproliferative activity against ovarian cancer patient-derived OVPF038 cells after 6 days by ATP-TCA method

SMILES	IC50 [1] [µM]	IC50 [2] [µM]	IC50 [3] [µM]	IC50 [4] [µM]
CC(C)[C@]12C=C3CC[C@H]4[C@@](C)(CO)[C@@H](O)CC[C@]4(C)[C@]3(CC1)OO2	> 50	–	–	–
CC(=O)O[C@H]1C(=O)[C@@]2(C)[C@H]([C@H](OC(=O)c3ccccc3)[C@]3(O)C[C@H](OC(=O)[C@H](O)[C@@H](NC(=O)c4ccccc4)c4ccccc4)C(C)=C1C3(C)C)[C@]1(OC(C)=O)CO[C@@H]1C[C@@H]2O [PACLITAXEL]	11.2	11	1.1	1.4
CC(=O)OC[C@@]1(C)[C@@H](O)CC[C@]2(C)c3ccc(C(C)C)cc3CC[C@@H]12	6.3	31.5	7.9	12.7
CC(C)(O)c1cc2c(cc1O)[C@@]1(C)CCC3=C(COC3=O)[C@@H]1CC2	–	44.7	> 50	> 50
CC(C)[C@]12C=C3CC[C@@H]4[C@](C)(CCC[C@]4(C)C(=O)O)[C@]3(CC1)OO2	> 50	–	–	–
C=C(C)c1ccc2c(c1)CC[C@H]1C3=C(CC[C@]21C)C(=O)OC3	9	11.7	16.8	19.3
C=C(C)c1cc2c(cc1O)[C@@]1(C)CCC3=C(COC3=O)[C@@H]1CC2	49.6	43.8	–	> 50
CC(C)[C@@]12C=C3CC[C@H]4[C@@](C)(CO)[C@@H](O)CC[C@]4(C)[C@]3(CC1)OO2	49.7	–	> 50	> 50
